Data published in PubChem BioAssay AID1259407 (Chemical Carcinogenesis Research Information System (CCRIS), 2018).
Active and inactive are the calls of the source. How the calls were made is not given here.

System: CCRIS mutagenicity, Ames/micronucleus/aberration tests
Assay: CCRIS mutagenicity studies
[1] = Test System: AMES SALMONELLA TYPHIMURIUM, Strain/Indicator: TA98, Metabolic Activation: NONE, Method: PREINCUBATION
[2] = Test System: AMES SALMONELLA TYPHIMURIUM, Strain/Indicator: TA98, Metabolic Activation: NONE, Method: STANDARD PLATE
[3] = Test System: AMES SALMONELLA TYPHIMURIUM, Strain/Indicator: TA100, Metabolic Activation: NONE, Method: STANDARD PLATE

For Cc1c2c(cc3ccccc13)-c1ccccc1C1NC21 (centres undefined), the mutagenic call (Test System: AMES SALMONELLA TYPHIMURIUM, Strain/Indicator: TA97, Metabolic Activation: NONE, Method: PREINCUBATION) was “active; positive”, the mutagenic call [1] was “active; positive” and the mutagenic call [2] was “active; positive”. The mutagenic call [3] was “active; positive” and the mutagenic call (Test System: AMES SALMONELLA TYPHIMURIUM, Strain/Indicator: TA104, Metabolic Activation: NONE, Method: PREINCUBATION) was “active; positive”.

CC1=CC(C=O)C(C=O)=C[C@@H]2CC(C)(C)C[C@H]12 (some centres undefined) was tested, and the mutagenic call [2] was “inactive; negative”, the mutagenic call [3] was “inactive; negative” and the mutagenic call (Test System: AMES SALMONELLA TYPHIMURIUM, Strain/Indicator: TA2637, Metabolic Activation: NONE, Method: STANDARD PLATE) was “inactive; negative”. For the same molecule, the mutagenic call (Test System: CHINESE HAMSTER V-79, Strain/Indicator: V-79/6-THIOGUANINE (HGPRT), Metabolic Activation: NONE) was “inactive; negative”.

COc1cc(-c2ccc(N/N=C3\C(=O)c4c(O)cc(S(=O)(=O)O)cc4C=C3S(=O)(=O)O)c(OC)c2)ccc1N/N=C1\C(=O)c2c(O)cc(S(=O)(=O)O)cc2C=C1S(=O)(=O)O was tested, and the mutagenic call (Test System: AMES SALMONELLA TYPHIMURIUM, Strain/Indicator: TA98, Metabolic Activation: HAMSTER, LIVER, S-9, AROCLOR 1254 (10%), Method: PREINCUBATION) was “inactive; negative”, the mutagenic call [1] was “inactive; negative” and the mutagenic call (Test System: AMES SALMONELLA TYPHIMURIUM, Strain/Indicator: TA98, Metabolic Activation: RAT, LIVER, S-9, AROCLOR 1254 (10%), Method: PREINCUBATION) was “inactive; negative”. The mutagenic call (Test System: AMES SALMONELLA TYPHIMURIUM, Strain/Indicator: TA100, Metabolic Activation: HAMSTER, LIVER, S-9, AROCLOR 1254 (10%), Method: PREINCUBATION) was “inactive; negative”, the mutagenic call (Test System: AMES SALMONELLA TYPHIMURIUM, Strain/Indicator: TA100, Metabolic Activation: NONE, Method: PREINCUBATION) was “inactive; negative” and the mutagenic call (Test System: AMES SALMONELLA TYPHIMURIUM, Strain/Indicator: TA100, Metabolic Activation: RAT, LIVER, S-9, AROCLOR 1254 (10%), Method: PREINCUBATION) was “inactive; negative”. The mutagenic call (Test System: AMES SALMONELLA TYPHIMURIUM, Strain/Indicator: TA1535, Metabolic Activation: HAMSTER, LIVER, S-9, AROCLOR 1254 (10%), Method: PREINCUBATION) was “inactive; negative”, the mutagenic call (Test System: AMES SALMONELLA TYPHIMURIUM, Strain/Indicator: TA1535, Metabolic Activation: NONE, Method: PREINCUBATION) was “inactive; negative” and the mutagenic call (Test System: AMES SALMONELLA TYPHIMURIUM, Strain/Indicator: TA1535, Metabolic Activation: RAT, LIVER, S-9, AROCLOR 1254 (10%), Method: PREINCUBATION) was “inactive; negative”. For the same molecule, the mutagenic call (Test System: AMES SALMONELLA TYPHIMURIUM, Strain/Indicator: TA1537, Metabolic Activation: HAMSTER, LIVER, S-9, AROCLOR 1254 (10%), Method: PREINCUBATION) was “inactive; negative”, the mutagenic call (Test System: AMES SALMONELLA TYPHIMURIUM, Strain/Indicator: TA1537, Metabolic Activation: NONE, Method: PREINCUBATION) was “inactive; negative” and the mutagenic call (Test System: AMES SALMONELLA TYPHIMURIUM, Strain/Indicator: TA1537, Metabolic Activation: RAT, LIVER, S-9, AROCLOR 1254 (10%), Method: PREINCUBATION) was “inactive; negative”. The mutagenic call (Test System: AMES SALMONELLA TYPHIMURIUM, Strain/Indicator: TA1538, Metabolic Activation: RAT, LIVER, S-9, AROCLOR 1254, Method: STANDARD PLATE) was “inactive; negative”.

C[C@@H]1O[C@H]1C was tested, and the mutagenic call (Test System: AMES SALMONELLA TYPHIMURIUM, Strain/Indicator: TA100, Metabolic Activation: NONE, Method: FLASK VAPORIZATION) was “active; positive”, the mutagenic call [3] was “active; positive” and the mutagenic call (Test System: AMES SALMONELLA TYPHIMURIUM, Strain/Indicator: TA100, Metabolic Activation: RAT, LIVER, S-9, AROCLOR 1254, Method: FLASK VAPORIZATION) was “active; positive”. The mutagenic call (Test System: AMES SALMONELLA TYPHIMURIUM, Strain/Indicator: TA1535, Metabolic Activation: NONE, Method: FLASK VAPORIZATION) was “active; positive”, the mutagenic call (Test System: AMES SALMONELLA TYPHIMURIUM, Strain/Indicator: TA1535, Metabolic Activation: NONE, Method: STANDARD PLATE) was “active; positive” and the mutagenic call (Test System: AMES SALMONELLA TYPHIMURIUM, Strain/Indicator: TA1535, Metabolic Activation: RAT, LIVER, S-9, AROCLOR 1254, Method: FLASK VAPORIZATION) was “active; positive”.

With Cc1cccc2cc3c(cc12)-c1cccc2cccc-3c12 the mutagenic call (Test System: AMES SALMONELLA TYPHIMURIUM, Strain/Indicator: TA100, Metabolic Activation: RAT, LIVER, S-9, AROCLOR 1254) was “active; positive”.
